Source: patent US20260372303A1, “5-Fluoro-4-Imino-3-Methyl-1-Tosyl-3, 4-Dihydropyrimidin-2(1H) -One for Fungicide-Resistant Fungus” (priority 2022, published 2026)

Columns and labels:
Format in all cases: in vivo
[1] = system: Zymoseptoria tritici strain Zt 99; experiment: In planta preventive efficacy on wheat cv. Alixan against Zymoseptoria tritici strain Zt 99; conditions: for Disease Severity Intensity: % of length of 2nd leaf blade, preventive 24 h; for AUDPC: control 1352.9
Procedure: (§1) A series of experiments were conducted to evaluate the efficacy of flumetylsulforim (ADF-16) for treating different strains of Zymoseptoria tritici in comparison with commercially available fungicides. Table 1 describes the Z. tritici strains used in this study and Table 2 describes the fungicides used in this study.
(§2) Winter wheat plants cv. Alixan (Limagrain) at the BBCH 12 growth stage were treated preventively with sterile distilled water (control), ADF-16, penthiopyrad, metconazole or tebuconazole at the rates described in Table 2 with a hand sprayer at 2 bars.
(§3) After treatment, wheat plants were left to dry at room temperature for 1 hour and then placed in a climatic chamber: temperature of 24 °C day/18 °C night-photoperiod of 16 h light/8 h dark and a relative humidity of 65%.
(§4) Untreated or treated whole wheat plants were inoculated 24-hours post-treatment with a calibrated pycnospore suspension of Z. tritici strains Zt StA, Zt 61, Zt 99, Zt 20, Zt 19-52, and Zt 38-02. Three replicates (pots) of 6 wheat plants each were used for each condition tested.
(§5) After inoculation, pots were transferred in a climatic chamber: temperature of 20 °C day/17 °C night—photoperiod of 16 h light/8 h dark and controlled relative humidity.
(§6) Disease assessments were carried out at 15 days post inoculation (dpi), 21 dpi and 28 dpi by measuring the length of the necrosis on the second leaf blade. The intensity of infection was then determined as a percentage of the total length of 2nd leaf blade.
(§7) The fungicide efficacies were determined from the Area Under the Disease Progress Curve (AUDPC) values and expressed as a percentage of the untreated control.
(§8) The AUDPC is a quantitative measure of disease intensity over time. The most commonly used method for estimating the AUDPC, the trapezoidal method, is performed by multiplying the average disease intensity between each pair of adjacent timepoints by the corresponding time interval and this for each time interval. The AUDPC is determined with the following formula by adding all of the trapezoids:
(§9) [formula] • yi=disease severity at the ith observation • ti=time (days) at the ith observation • N=total number of observations

[2] = system: Zymoseptoria tritici strain Zt 38-02; experiment: In planta preventive efficacy on wheat cv. Alixan against Zymoseptoria tritici strain Zt 38-02; conditions: for Disease Severity Intensity: % of length of 2nd leaf blade, preventive 24 h; for AUDPC: control 1261.4
Procedure: as §1, §2, §3, §4, §5, §6, §7, §8, §9

[3] = system: Zymoseptoria tritici strain Zt 20; experiment: In planta preventive efficacy on wheat cv. Alixan against Zymoseptoria tritici strain Zt 20; conditions: % of length of 2nd leaf blade, preventive 24 h
Procedure: as §1, §2, §3, §4, §5, §6, §7, §8, §9

[4] = system: Zymoseptoria tritici strain Zt 61; experiment: In planta preventive efficacy on wheat cv. Alixan against Zymoseptoria tritici strain Zt 61; parameters: fungicide efficacy: concentration or dose not given beside the values; conditions: for Disease Severity Intensity: % of length of 2nd leaf blade, preventive 24 h; for AUDPC: control 1194.9
Procedure: as §1, §2, §3, §4, §5, §6, §7, §8, §9

[5] = system: Zymoseptoria tritici strain Zt 19-52; experiment: In planta preventive efficacy on wheat cv. Alixan against Zymoseptoria tritici strain Zt 19-52; conditions: % of length of 2nd leaf blade, preventive 24 h
Procedure: as §1, §2, §3, §4, §5, §6, §7, §8, §9

[6] = system: Zymoseptoria tritici strain Zt StA; experiment: In planta preventive efficacy on wheat cv. Alixan against Zymoseptoria tritici strain Zt StA (control strain, sensitive); conditions: for Disease Severity Intensity: % of length of 2nd leaf blade, preventive 24 h; for AUDPC: control 781.6
Procedure: as §1, §2, §3, §4, §5, §6, §7, §8, §9

[7] = rate N (g a.i./ha): ADF-16 100, penthiopyrad 200, metconazole 90, tebuconazole 250
[8] = rate N/2.5 (g a.i./ha): ADF-16 40, penthiopyrad 80, metconazole 36, tebuconazole 100
[9] = 15 dpi, rate N (g a.i./ha): ADF-16 100, penthiopyrad 200, metconazole 90, tebuconazole 250, control also no disease
[10] = 15 dpi, rate N/2.5 (g a.i./ha): ADF-16 40, penthiopyrad 80, metconazole 36, tebuconazole 100, control also no disease

CC(C)CC(C)c1sccc1NC(=O)c1cn(C)nc1C(F)(F)F (stereo not drawn) [Penthiopyrad]
Disease Severity Intensity ([1]; 15 dpi, rate N (g a.i./ha): ADF-16 100, penthiopyrad 200, metconazole 90, tebuconazole 250, control 47.9): 12.9 +/− 2.1c %
Disease Severity Intensity ([1]; 15 dpi, rate N/2.5 (g a.i./ha): ADF-16 40, penthiopyrad 80, metconazole 36, tebuconazole 100, control 47.9): 27.5 +/− 2.2b %
Disease Severity Intensity ([1]; 21 dpi, rate N (g a.i./ha): ADF-16 100, penthiopyrad 200, metconazole 90, tebuconazole 250, control 81.0): 70.2 +/− 2.8b %
Disease Severity Intensity ([1]; 21 dpi, rate N/2.5 (g a.i./ha): ADF-16 40, penthiopyrad 80, metconazole 36, tebuconazole 100, control 81.0): 72.0 +/− 3.6b %
Disease Severity Intensity ([1]; 28 dpi, rate N (g a.i./ha): ADF-16 100, penthiopyrad 200, metconazole 90, tebuconazole 250, control 92.2): 90.6 +/− 1.7ab %
Disease Severity Intensity ([1]; 28 dpi, rate N/2.5 (g a.i./ha): ADF-16 40, penthiopyrad 80, metconazole 36, tebuconazole 100, control 92.2): 90.9 +/− 1.6ab %
Efficacy (from AUDPC, percentage of the untreated control) [1, 7]: 32.9%
AUDPC [1, 7]: 908.4 +/− 11.3c
Efficacy (from AUDPC, percentage of the untreated control) [1, 8]: 20.4%
AUDPC [1, 8]: 1076.9 +/− 17.9b
Disease Severity Intensity ([2]; 15 dpi, rate N (g a.i./ha): ADF-16 100, penthiopyrad 200, metconazole 90, tebuconazole 250, control 36.0): 0.0 +/− 0.0b %
Disease Severity Intensity ([2]; 15 dpi, rate N/2.5 (g a.i./ha): ADF-16 40, penthiopyrad 80, metconazole 36, tebuconazole 100, control 36.0): 0.0 +/− 0.0b %
Disease Severity Intensity ([2]; 21 dpi, rate N (g a.i./ha): ADF-16 100, penthiopyrad 200, metconazole 90, tebuconazole 250, control 84.3): 10.9 +/− 2.1e %
Disease Severity Intensity ([2]; 21 dpi, rate N/2.5 (g a.i./ha): ADF-16 40, penthiopyrad 80, metconazole 36, tebuconazole 100, control 84.3): 70.7 +/− 3.3b %
Disease Severity Intensity ([2]; 28 dpi, rate N (g a.i./ha): ADF-16 100, penthiopyrad 200, metconazole 90, tebuconazole 250, control 95.7): 54.9 +/− 3.2d %
Disease Severity Intensity ([2]; 28 dpi, rate N/2.5 (g a.i./ha): ADF-16 40, penthiopyrad 80, metconazole 36, tebuconazole 100, control 95.7): 86.5 +/− 2.1c %
Efficacy (from AUDPC, percentage of the untreated control) [2, 7]: 79.2%
AUDPC [2, 7]: 262.9 ± 12.5 days
Efficacy (from AUDPC, percentage of the untreated control) [2, 8]: 39.5%
AUDPC [2, 8]: 763.1 +/− 4.4b
Disease Severity Intensity [3, 9]: No disease
Disease Severity Intensity [3, 10]: No disease
Disease Severity Intensity ([3]; 21 dpi, rate N (g a.i./ha): ADF-16 100, penthiopyrad 200, metconazole 90, tebuconazole 250, control 77.2): 0.3 +/− 0.3e %
Disease Severity Intensity ([3]; 21 dpi, rate N/2.5 (g a.i./ha): ADF-16 40, penthiopyrad 80, metconazole 36, tebuconazole 100, control 77.2): 0.0 +/− 0.0e %
Disease Severity Intensity ([3]; 28 dpi, rate N (g a.i./ha): ADF-16 100, penthiopyrad 200, metconazole 90, tebuconazole 250, control 95.5): 1.2 +/− 0.6g %
Disease Severity Intensity ([3]; 28 dpi, rate N/2.5 (g a.i./ha): ADF-16 40, penthiopyrad 80, metconazole 36, tebuconazole 100, control 95.5): 2.0 +/− 1.4g %
Disease Severity Intensity [4, 9]: No disease
Disease Severity Intensity [4, 10]: No disease
Disease Severity Intensity ([4]; 21 dpi, rate N (g a.i./ha): ADF-16 100, penthiopyrad 200, metconazole 90, tebuconazole 250, control 63.3): 1.2 +/− 0.5d %
Disease Severity Intensity ([4]; 21 dpi, rate N/2.5 (g a.i./ha): ADF-16 40, penthiopyrad 80, metconazole 36, tebuconazole 100, control 63.3): 19.9 +/− 3.8b %
Disease Severity Intensity ([4]; 28 dpi, rate N (g a.i./ha): ADF-16 100, penthiopyrad 200, metconazole 90, tebuconazole 250, control 88.1): 18.2 +/− 2.8e %
Disease Severity Intensity ([4]; 28 dpi, rate N/2.5 (g a.i./ha): ADF-16 40, penthiopyrad 80, metconazole 36, tebuconazole 100, control 88.1): 74.3 +/− 2.3b %
fungicide efficacy ([4]; higher application rates (N)): ≥ 85%
fungicide efficacy ([4]; lower application rates (N/2.5)): ≤ 70%
Efficacy (from AUDPC, percentage of the untreated control) [4, 7]: 93.3%
AUDPC [4, 7]: 80.2 ± 9.8 days
Efficacy (from AUDPC, percentage of the untreated control) [4, 8]: 55.0%
AUDPC [4, 8]: 537.9 +/− 53.2b
Disease Severity Intensity ([5]; 15 dpi, rate N (g a.i./ha): ADF-16 100, penthiopyrad 200, metconazole 90, tebuconazole 250, control 22.0): 0.0 +/− 0.0b %
Disease Severity Intensity ([5]; 15 dpi, rate N/2.5 (g a.i./ha): ADF-16 40, penthiopyrad 80, metconazole 36, tebuconazole 100, control 22.0): 0.0 +/− 0.0b %
Disease Severity Intensity ([5]; 21 dpi, rate N (g a.i./ha): ADF-16 100, penthiopyrad 200, metconazole 90, tebuconazole 250, control 81.7): 0.0 +/− 0.0c %
Disease Severity Intensity ([5]; 21 dpi, rate N/2.5 (g a.i./ha): ADF-16 40, penthiopyrad 80, metconazole 36, tebuconazole 100, control 81.7): 0.0 +/− 0.0c %
Disease Severity Intensity ([5]; 28 dpi, rate N (g a.i./ha): ADF-16 100, penthiopyrad 200, metconazole 90, tebuconazole 250, control 91.0): 0.0 +/− 0.0f %
Disease Severity Intensity ([5]; 28 dpi, rate N/2.5 (g a.i./ha): ADF-16 40, penthiopyrad 80, metconazole 36, tebuconazole 100, control 91.0): 2.0 +/− 0.8e %
Disease Severity Intensity [6, 9]: No disease
Disease Severity Intensity [6, 10]: No disease
Disease Severity Intensity ([6]; 21 dpi, rate N (g a.i./ha): ADF-16 100, penthiopyrad 200, metconazole 90, tebuconazole 250, control 36.5): 0.0 +/− 0.0b %
Disease Severity Intensity ([6]; 21 dpi, rate N/2.5 (g a.i./ha): ADF-16 40, penthiopyrad 80, metconazole 36, tebuconazole 100, control 36.5): 0.0 +/− 0.0b %
Disease Severity Intensity ([6]; 28 dpi, rate N (g a.i./ha): ADF-16 100, penthiopyrad 200, metconazole 90, tebuconazole 250, control 77.4): 0.0 +/− 0.0b %
Disease Severity Intensity ([6]; 28 dpi, rate N/2.5 (g a.i./ha): ADF-16 40, penthiopyrad 80, metconazole 36, tebuconazole 100, control 77.4): 0.0 +/− 0.0b %
Efficacy (from AUDPC, percentage of the untreated control) [6, 7]: 100%
AUDPC [6, 7]: 0.0 +/− 0.0b
Efficacy (from AUDPC, percentage of the untreated control) [6, 8]: 100%
AUDPC [6, 8]: 0.0 +/− 0.0b
